From ChEMBL document CHEMBL1129528, “Synthesis and biological evaluation of N-acetylneuraminic acid-based rotavirus inhibitors” (J Med Chem, 1996) come the findings set out here.

Type in all cases: functional, organism-based
Experiment [1] has as its system Rotavirus. The experiment in a line: Inhibitory activity against SA11 (simian) rotavirus strain.
In experiment [2] the test system is Rotavirus. Kind of experiment: Inhibitory activity against NCDV(bovine) rotavirus strain.
Experiment [3] has as its system Rotavirus. Kind of experiment: Inhibitory activity against UK(bovine) rotavirus strain.
Experiment [4] relates to Rotavirus. Kind of experiment: Inhibitory activity against Wa(human) rotavirus strain.

As for `COC1OC(CSC2(C(=O)O)CC(O)C(NC(C)=O)C([C@H](O)[C@H](O)COC(C)=O)O2)C(O)C(O)C1NC(C)=O` (some centres undefined), the IC50 is > 25 mM with Rotavirus [1] (Rotavirus), 0.35 mM with Rotavirus [2] (Rotavirus), 12.5 mM in the experiment on Rotavirus [3] and > 25 mM with Rotavirus [4].
For `COC1OC(CSC2(C(=O)O)CC(O)C(NC(C)=O)C([C@H](O)[C@H](O)COC(C)=O)O2)C(O)C(O)C1O` (some centres undefined), the IC50 in the experiment on Rotavirus [1] (Rotavirus) is > 25 mM; with Rotavirus [2] (Rotavirus), 1.5 mM; in the experiment on Rotavirus [3] it was 25 mM; with Rotavirus [4] it was > 25 mM.
In the case of `COC1OC(CSC2(C(=O)O)CC(O)C(NC(C)=O)C([C@H](O)[C@H](O)CO)O2)C(O)C(O)C1NC(C)=O` (some centres undefined), the half-inhibitory concentration (IC50) was 25 mM in the experiment with Rotavirus [1] (Rotavirus), 6.25 mM in the experiment on Rotavirus [2] (Rotavirus), > 25 mM in the experiment on Rotavirus [3] and > 25 mM in the experiment with Rotavirus [4].
As to `CO[C@H]1O[C@H](CSC2(C(=O)O)CC(O)C(NC(C)=O)C(C(O)[C@H](O)CO)O2)[C@@H](O)[C@@H]1O` (single isomer, unassigned), the IC50 with Rotavirus [1] (Rotavirus) was > 25 mM; in the experiment on Rotavirus [2] (Rotavirus) it was 6.25 mM; in the experiment with Rotavirus [3], > 25 mM; in the experiment on Rotavirus [4], > 25 mM.
Turning to `COC1OC(CSC2(C(=O)O)CC(O)C(NC(C)=O)C([C@H](O)[C@H](O)CO)O2)C(O)C(O)C1O` (stereo in doubt; 14), the half-inhibitory concentration (IC50) with Rotavirus [1] is 25 mM; in the experiment with Rotavirus [2] it was 6.25 mM.
As to `COC1OC(CSC2(C(=O)O)CC(O)C(NC(C)=O)C([C@H](O)[C@H](O)COC(C)=O)O2)C(OC(C)=O)C(O)C1O` (some centres undefined), the IC50 in the experiment on Rotavirus [1] (Rotavirus) was 25 mM; in the experiment with Rotavirus [2] (Rotavirus), 1.5 mM; in the experiment on Rotavirus [3], 12.5 mM; in the experiment on Rotavirus [4], > 25 mM.
For the molecule `COC1OC(CO)C(SC2(C(=O)O)CC(O)C(NC(C)=O)C([C@H](O)[C@H](O)CO)O2)C(O)C1O` (some centres undefined), the IC50 was 25 mM in the experiment with Rotavirus [1] (Rotavirus), 6.25 mM in the experiment with Rotavirus [2] (Rotavirus), > 25 mM in the experiment on Rotavirus [3] and > 25 mM with Rotavirus [4].
Regarding `CC(=O)NC1C(O)CC(SC[C@@H](O)C2OC3OC(C)(C)OC3C2O)(C(=O)O)OC1[C@H](O)[C@H](O)CO` (some centres undefined), the 50% inhibitory concentration (IC50) with Rotavirus [1] (Rotavirus) is 6.25 mM; in the experiment on Rotavirus [2] (Rotavirus), 6.25 mM; in the experiment with Rotavirus [3], 25 mM; in the experiment with Rotavirus [4] it was > 25 mM.
With `COC1OC(CSC2(C(=O)O)CC(O)C(NC(C)=O)C([C@H](O)[C@H](O)CO)O2)C(O)C(O)C1O` (stereo in doubt; 16), the IC50 with Rotavirus [1] (Rotavirus) is 12.5 mM; with Rotavirus [2] (Rotavirus) it was 6.25 mM; in the experiment on Rotavirus [3], > 25 mM; in the experiment with Rotavirus [4] it was > 25 mM.
